Data as given in BindingDB's records for doi:10.1016/j.bmcl.2006.01.056 (Bristol-Myers Squibb, 2006).

Biological target: T1, Kinesin-like protein KIF11 (Homo sapiens, UniProt P52732)
T1 sequence (P52732 whole entry): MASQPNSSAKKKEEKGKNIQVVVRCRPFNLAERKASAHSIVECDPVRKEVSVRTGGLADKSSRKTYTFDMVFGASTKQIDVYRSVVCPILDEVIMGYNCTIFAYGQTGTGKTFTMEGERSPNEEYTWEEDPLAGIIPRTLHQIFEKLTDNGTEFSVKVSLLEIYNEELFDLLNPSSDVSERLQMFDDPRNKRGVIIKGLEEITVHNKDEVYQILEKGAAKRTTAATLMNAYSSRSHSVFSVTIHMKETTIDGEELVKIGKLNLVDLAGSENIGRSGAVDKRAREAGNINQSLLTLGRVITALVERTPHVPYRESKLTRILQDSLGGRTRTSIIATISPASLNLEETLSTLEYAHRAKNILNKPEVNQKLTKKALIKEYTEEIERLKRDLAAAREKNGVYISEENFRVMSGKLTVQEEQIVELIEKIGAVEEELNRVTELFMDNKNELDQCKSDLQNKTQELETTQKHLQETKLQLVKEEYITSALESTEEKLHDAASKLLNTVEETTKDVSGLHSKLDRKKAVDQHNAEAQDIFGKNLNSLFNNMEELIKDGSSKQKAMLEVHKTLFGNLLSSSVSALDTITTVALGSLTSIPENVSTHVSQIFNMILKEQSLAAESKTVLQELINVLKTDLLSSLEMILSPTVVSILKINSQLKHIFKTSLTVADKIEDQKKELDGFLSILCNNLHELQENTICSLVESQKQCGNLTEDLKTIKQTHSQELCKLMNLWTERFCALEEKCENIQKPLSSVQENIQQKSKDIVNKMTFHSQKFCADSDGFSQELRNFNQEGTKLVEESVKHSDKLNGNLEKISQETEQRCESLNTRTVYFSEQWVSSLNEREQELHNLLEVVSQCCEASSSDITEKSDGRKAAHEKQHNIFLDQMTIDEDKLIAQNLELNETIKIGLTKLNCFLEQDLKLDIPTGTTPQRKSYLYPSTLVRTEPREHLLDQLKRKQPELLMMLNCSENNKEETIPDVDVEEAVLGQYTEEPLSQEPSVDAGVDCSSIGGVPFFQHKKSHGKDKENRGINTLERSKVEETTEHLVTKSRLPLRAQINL
Assay: Microtubule-Activated Eg5 ATPase Assay
Method: ATPase assays with Eg5 motor domain protein were performed using Kinase-Glo Luminescent Kit as described by the manufacturer (Promega).

`CN(C)C(=O)N1Cc2c(ccc3ccccc23)C(c2cccc(O)c2)C1` (stereo unspecified) [6-(3-hydroxyphenyl)-N,N-dimethyl-4-azatricyclo[8.4.0.0^{2,7}]tetradeca-1(10),2(7),8,11,13-pentaene-4-carboxamide] showed an IC50 of 477 nM.
